In patent publication US9783527B2, “Indazole ureas and method of use” (AbbVie Inc., priority 2014, dated 2017):

How the values were obtained:
human Nav1.8 = human Nav1.8 (Homo sapiens (Human), UniProt Q9Y5Y9); test: FRET-based membrane potential assay, recombinant human sodium channel Nav1.8; type: cell-based; conditions: HEK293 cells stably expressing recombinant human Nav1.8; depolarization with veratridine (EC80) + scorpion venom
Method in brief: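 HEK293 cells stably expressing Nav1.8 were loaded with CC2-DMPE/DiSBAC2(3) FRET voltage dyes. Compounds were added 3 min before depolarization with EC80 veratridine plus scorpion venom. The F440-480/F565-625 ratio was read on FLIPR; IC50 came from four-parameter Hill fits.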

[1] = test system: MIA-induced osteoarthritic pain in rats; test: Osteoarthritic (OA) pain induced by sodium monoiodoacetate (MIA), hind limb grip force; type: in vivo, rat; conditions: male Sprague Dawley rats, grip force 20 days after MIA injection

Chain of human Nav1.8 (Q9Y5Y9 whole entry): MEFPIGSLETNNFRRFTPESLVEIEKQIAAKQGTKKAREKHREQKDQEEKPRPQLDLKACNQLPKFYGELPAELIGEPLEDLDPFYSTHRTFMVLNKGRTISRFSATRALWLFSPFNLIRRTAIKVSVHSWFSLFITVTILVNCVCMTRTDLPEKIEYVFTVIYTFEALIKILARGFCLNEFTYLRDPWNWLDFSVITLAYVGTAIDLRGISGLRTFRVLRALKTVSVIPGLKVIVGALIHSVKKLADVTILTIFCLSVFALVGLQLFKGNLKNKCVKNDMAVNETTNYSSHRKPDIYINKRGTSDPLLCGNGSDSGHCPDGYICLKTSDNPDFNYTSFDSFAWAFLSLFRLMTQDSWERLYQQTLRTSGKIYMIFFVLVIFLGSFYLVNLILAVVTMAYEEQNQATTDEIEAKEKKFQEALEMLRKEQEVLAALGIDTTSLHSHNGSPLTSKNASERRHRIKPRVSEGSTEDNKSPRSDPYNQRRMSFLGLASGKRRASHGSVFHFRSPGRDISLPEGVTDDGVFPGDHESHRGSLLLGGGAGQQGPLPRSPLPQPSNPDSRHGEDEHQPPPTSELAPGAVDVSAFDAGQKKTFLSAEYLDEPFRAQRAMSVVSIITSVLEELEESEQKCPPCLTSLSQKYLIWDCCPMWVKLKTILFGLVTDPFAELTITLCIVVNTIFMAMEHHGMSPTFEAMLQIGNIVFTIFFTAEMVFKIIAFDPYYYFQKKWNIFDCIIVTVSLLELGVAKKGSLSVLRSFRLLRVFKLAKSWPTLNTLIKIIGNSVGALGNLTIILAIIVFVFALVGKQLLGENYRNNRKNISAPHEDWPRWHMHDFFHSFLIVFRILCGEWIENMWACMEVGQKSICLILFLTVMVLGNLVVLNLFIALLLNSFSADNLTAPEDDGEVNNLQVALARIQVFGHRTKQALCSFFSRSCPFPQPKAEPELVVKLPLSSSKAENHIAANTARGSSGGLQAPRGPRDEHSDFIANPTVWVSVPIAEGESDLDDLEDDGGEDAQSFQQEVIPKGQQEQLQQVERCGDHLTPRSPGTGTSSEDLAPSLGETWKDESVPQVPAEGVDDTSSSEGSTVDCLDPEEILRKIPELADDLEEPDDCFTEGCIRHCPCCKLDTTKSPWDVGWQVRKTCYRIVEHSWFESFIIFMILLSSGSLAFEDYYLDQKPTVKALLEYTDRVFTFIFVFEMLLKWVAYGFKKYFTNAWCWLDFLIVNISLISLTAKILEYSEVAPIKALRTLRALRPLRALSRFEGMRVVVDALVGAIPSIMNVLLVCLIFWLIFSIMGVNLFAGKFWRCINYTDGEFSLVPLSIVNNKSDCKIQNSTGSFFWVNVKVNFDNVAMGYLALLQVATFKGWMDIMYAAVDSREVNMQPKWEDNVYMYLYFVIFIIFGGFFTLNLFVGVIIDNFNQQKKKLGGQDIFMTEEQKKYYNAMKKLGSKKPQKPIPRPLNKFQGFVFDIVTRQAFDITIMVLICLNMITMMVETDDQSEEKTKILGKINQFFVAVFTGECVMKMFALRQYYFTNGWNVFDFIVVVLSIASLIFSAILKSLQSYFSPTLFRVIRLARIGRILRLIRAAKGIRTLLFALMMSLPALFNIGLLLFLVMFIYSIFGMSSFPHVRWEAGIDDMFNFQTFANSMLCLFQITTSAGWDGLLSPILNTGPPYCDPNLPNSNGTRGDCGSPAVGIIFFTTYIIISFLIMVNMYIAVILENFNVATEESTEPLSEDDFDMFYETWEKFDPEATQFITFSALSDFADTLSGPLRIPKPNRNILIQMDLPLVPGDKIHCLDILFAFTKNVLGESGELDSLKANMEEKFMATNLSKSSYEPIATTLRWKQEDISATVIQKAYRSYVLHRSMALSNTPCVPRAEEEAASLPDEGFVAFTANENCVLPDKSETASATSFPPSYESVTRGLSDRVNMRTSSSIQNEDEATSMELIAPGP

| SMILES | IC50 (human Nav1.8) | OA MPE (%) ([1]; OA dose 30 mg/kg) | OA MPE (%) ([1]; OA dose 10 mg/kg) |
| --- | --- | --- | --- |
| Cc1noc(C(C)N2CCN(c3cccc4c3cnn4-c3ccccc3F)C2=O)n1 (racemic) [Example 46, 1-[1-(2-fluorophenyl)-1H-indazol-4-yl]-3-[1-(3-methyl-1,2,4-oxadiazol-5-yl)ethyl]imidazolidin-2-one] | 8.73 µM | 69% |  |
| C[C@H]1CCCN1C(=O)CN1CCN(c2cccc3c2cnn3-c2ccccc2F)C1=O [Example 15, 1-[1-(2-fluorophenyl)-1H-indazol-4-yl]-3-{2-[(2S)-2-methylpyrrolidin-1-yl]-2-oxoethyl}imidazolidin-2-one] | 1.81 µM | 68% |  |
| Cc1noc(C)c1CN1CCN(c2cccc3c2cnn3-c2ccccc2F)C1=O [Example 27, 1-[(3,5-dimethyl-1,2-oxazol-4-yl)methyl]-3-[1-(2-fluorophenyl)-1H-indazol-4-yl]imidazolidin-2-one] | 1.04 µM |  | 57% |
| O=C(CN1CCN(c2cccc3c2cnn3-c2ccccc2F)C1=O)N[C@@H]1CCOC1 [Example 55, 2-{3-[1-(2-fluorophenyl)-1H-indazol-4-yl]-2-oxoimidazolidin-1-yl}-N-[(3R)-tetrahydrofuran-3-yl]acetamide] | 5.28 µM | 66% |  |
